The target of one data set is T1, human V1A receptor (Homo sapiens, UniProt P37288).
T1 construct: host or cells: CHO cells (CHO-hV1A), membrane preparation
The experiment in a line: V1A filter binding assay ([3H]-AVP binding to CHO-hV1A membranes). Particulars: screen 1.0, [3H]-AVP displacement. As for the experimental part:
1.0 V1A Filter Binding Assay
Receptor binding assays were performed on cellular membranes prepared from CHO cells stably expressing the human V1A receptor, (CHO-hV1A). The CHO-hV1A cell line was kindly provided under a licensing agreement by Marc Thibonnier, Dept. of Medicine, Case Western Reserve University School of Medicine, Cleveland, Ohio. CHO-hV1A cells were routinely maintained at 37° C. in humidified atmosphere with 5% CO2 in DMEM/Hams F12 nutrient mix supplemented with 10% fetal bovine serum, 2 mM L-glutamine, 15 mM HEPES and 400 μg/ml G418. For bulk production of cell pellets, adherent CHO-hV1A cells were grown to confluency of 90–100% in 850 cm^2 roller bottles containing a medium of DMEM/Hams F12 Nutrient Mix supplemented with 10% fetal bovine serum, 2 mM L-glutamine and 15 mM HEPES. Confluent CHO-hV1A cells were washed with phosphate-buffered saline (PBS), harvested into ice cold PBS and centrifuged at 1,000 rpm. Cell pellets were stored at −80° C. until use. Cell pellets were thawed on ice and homogenised in membrane preparation buffer consisting of 50 mM Tris-HCl, pH 7.4, 5 mM MgCl2 and supplemented with a protease inhibitor cocktail, (Roche). The cell homogenate was centrifuged at 1000 rpm, 10 min, 4° C. and the supernatant was removed and stored on ice. The remaining pellet was homogenised and centrifuged as before. The supernatants were pooled and centrifuged at 25,000×g for 30 min at 4° C. The pellet was resuspended in freezing buffer consisting of 50 mM Tris-HCl, pH 7.4, 5 mM MgCl2 and 20% glycerol and stored in small aliquots at −80° C. until use. Protein concentration was determined using Bradford reagent and BSA as a standard.
Protein linearity followed by saturation binding studies were performed on each new batch of membrane. Membrane concentration was chosen that gave specific binding on the linear portion of the curve.
Compounds were tested for their effects on [^3H]-AVP binding to CHO-hV1A membranes, (^3H-AVP; specific activity 65.5 Ci/mmol; NEN Life Sciences). Compounds were solubilised in dimethylsulfoxide (DMSO) and diluted to working concentration of 10% DMSO with assay buffer containing 50 mM Tris-HCL pH 7.4, 5 mM MgCl2 and 0.05% BSA. […] The plates were sealed and counted on a TopCount Microplate Scintillation Counter (Packard Instruments). […] The radioligand binding data was analysed using a four parameter logistic equation with the min forced to 0%. […] Specific binding was calculated by subtracting the mean NSB cpm from the mean Total cpm. […] The inhibitory dissociation constant (Ki) was calculated using the Cheng-Prusoff equation: Ki=IC50/(1+[L]/Kd) where [L] is the concentration of ligand present in the well and Kd is the dissociation constant of the radioligand obtained from Scatchard plot analysis.

Broadly, the Ki is the dissociation constant of the complex between target and ligand, obtained from inhibition or displacement. The low end stands for higher affinity, the high end for lower affinity. The melting point is the temperature, or range, at which the solid turns liquid.

T1 sequence (P37288 whole entry): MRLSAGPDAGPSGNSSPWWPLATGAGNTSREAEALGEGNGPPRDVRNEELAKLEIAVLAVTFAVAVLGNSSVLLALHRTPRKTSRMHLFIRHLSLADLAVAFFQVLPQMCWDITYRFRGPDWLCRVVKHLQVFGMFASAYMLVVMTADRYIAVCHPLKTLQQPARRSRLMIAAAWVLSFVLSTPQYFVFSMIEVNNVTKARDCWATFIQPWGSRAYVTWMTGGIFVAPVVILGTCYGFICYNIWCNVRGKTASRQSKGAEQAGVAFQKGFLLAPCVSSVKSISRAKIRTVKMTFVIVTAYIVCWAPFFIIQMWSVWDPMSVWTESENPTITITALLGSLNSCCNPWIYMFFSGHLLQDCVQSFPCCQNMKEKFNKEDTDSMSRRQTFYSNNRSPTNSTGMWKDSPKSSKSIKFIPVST

On to `c1ccc(COCc2nnc(C3CCN(c4ccccn4)CC3)n2Cc2ccccc2)cc1` [Example 17, 4-(4-Benzyl-5-benzyloxymethyl-4H-[1,2,4]triazol-3-yl)-3,4,5,6-tetrahydro-2H-[1,2′]bipyridinyl], for which, at human V1A receptor, the affinity, expressed as Ki, was 4.67 nM. That is a single-digit nanomolar value.

For the compound `Cc1nnc(C2CCN(c3cnccn3)CC2)n1Cc1ccccc1` [Example 23, 2-[4-(4-Benzyl-5-methyl-4H-[1,2,4]triazol-3-yl)-piperidin-1-yl]-pyrazine], the melting point turned out to be 191.1 °C.

In the case of `c1ccc(Cn2c(CN3CCCCC3)nnc2C2CCN(c3ccccn3)CC2)cc1` [Example 24, 4-(4-Benzyl-5-piperidin-1-ylmethyl-4H-[1,2,4]triazol-3-yl)-3,4,5,6-tetrahydro-2H-[1,2′]bipyridinyl], the Ki at human V1A receptor worked out at 12.1 nM. This lies in the double-digit nanomolar range.

Consider `C[C@@H](c1ccccc1)n1c(CN2CCCCC2)nnc1C1CCN(c2ccccn2)CC1` [Example 25, (S)-4-[4-(1-Phenyl-ethyl)-5-piperidin-1-ylmethyl-4H-[1,2,4]triazol-3-yl]-3,4,5,6-tetrahydro-2H-[1,2′]bipyridinyl], for which, at human V1A receptor, the Ki turned out to be 16.1 nM.

For `COC1CCN(Cc2nnc(C3CCN(c4ccccn4)CC3)n2Cc2ccccc2)CC1` [Example 26, 4-[4-Benzyl-5-(4-methoxy-piperidin-1-ylmethyl)-4H-[1,2,4]triazol-3-yl]-3,4,5,6-tetrahydro-2H-[1,2′]bipyridinyl], on human V1A receptor, affinity was put at a Ki of 4.5 nM. This Ki is about 3.6-fold lower than that of the compound before.

These data come from patent US7084145B2, “Triazole compounds useful in therapy” (Pfizer Inc., priority 2002, dated 2006).
